Laboratory results as given in patent publication US7838498B2, “Benzylic glycoside derivatives and methods of use” (Theracos, Inc., priority 2007, dated 2010).

How the values were obtained:
human SGLT1 = biological target: T1, human SGLT1 (Homo sapiens, UniProt P13866); assay: Methyl-α-D-[U-14C]glucopyranoside uptake assay, COS-7 cells expressing human SGLT1; assay type: cell-based; details: COS-7 cells expressing human SGLT1, 2 h incubation
T1 construct: Full-length human SGLT1 cDNA on pDream2.1 expression vector was obtained from GenScript Corporation; host or cells: COS-7 cells (American Type Culture Collection)
T1 sequence (P13866 1-664): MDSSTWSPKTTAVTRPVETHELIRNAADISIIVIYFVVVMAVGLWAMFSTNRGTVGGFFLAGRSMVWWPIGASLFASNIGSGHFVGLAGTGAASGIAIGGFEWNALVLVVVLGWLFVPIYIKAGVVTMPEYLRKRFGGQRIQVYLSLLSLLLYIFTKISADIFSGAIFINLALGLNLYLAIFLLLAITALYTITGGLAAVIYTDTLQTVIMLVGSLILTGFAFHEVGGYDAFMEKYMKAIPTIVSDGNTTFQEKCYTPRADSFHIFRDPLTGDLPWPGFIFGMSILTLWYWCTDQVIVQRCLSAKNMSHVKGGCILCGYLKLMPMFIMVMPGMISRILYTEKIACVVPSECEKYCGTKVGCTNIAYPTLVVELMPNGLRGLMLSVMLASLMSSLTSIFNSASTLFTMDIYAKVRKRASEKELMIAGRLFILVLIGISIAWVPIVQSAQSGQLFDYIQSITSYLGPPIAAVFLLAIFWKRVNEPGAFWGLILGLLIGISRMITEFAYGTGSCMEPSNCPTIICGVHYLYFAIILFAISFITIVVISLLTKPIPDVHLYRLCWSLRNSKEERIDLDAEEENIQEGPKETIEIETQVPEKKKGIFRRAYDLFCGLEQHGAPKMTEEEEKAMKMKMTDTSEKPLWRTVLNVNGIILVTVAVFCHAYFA
Experimental: Full-length human SGLT1 cDNA on pDream2.1 expression vector was obtained from GenScript Corporation and propagated in Escherichia coli strain DH5α using Luria-Bertani (LB) medium containing ampicillin. Plasmid DNA was isolated using the QIAGEN Plasmid Midi Kit (QIAGEN Inc.). […] Transfected cells were stored in DMEM containing 10% dimethyl sulfoxide (DMSO) at −80° C.
(§1) Cells expressing SGLT1 or SGLT2 were seeded on 96-well ScintiPlate scintillating plates (PerkinElmer, Inc.) in DMEM containing 10% FBS (1×10^5 cells per well in 100 μL medium) incubated at 37° C. under 5% CO2 for 48 h prior to the assay. Cells were washed twice with 150 μL of either sodium buffer (137 mM NaCl, 5.4 mM KCl, 2.8 mM CaCl2, 1.2 mM MgCl2, 10 mM tris(hydroxymethyl)aminomethane/N2-hydroxyethylpiperazine-N′-ethanesulfonic acid [Tris/Hepes], pH 7.2) or sodium-free buffer (137 mM N-methyl-glucamine, 5.4 mM KCl, 2.8 mM CaCl2, 1.2 mM MgCl2, 10 mM Tris/Hepes, pH 7.2). Test compound in 50 μL each of sodium or sodium-free buffer containing 40 μCi/L methyl-α-D-[U-^14C]glucopyranoside (Amersham Biosciences/GE Healthcare), either with (symbols in parentheses) or without (symbols without parentheses) 25% human serum, was added per well of a 96-well plate and incubated at 37° C. with shaking for either 2 h (SGLT1 assay) or 1.5 h (SGLT2 assay). Cells were washed twice with 150 μL of wash buffer (137 mM N-methylglucamine, 10 mM Tris/Hepes, pH 7.2) and methyl-α-D-[U-^14C]glucopyranoside uptake was quantitated using a TopCount scintillation counter (PerkinElmer, Inc.). Sodium-dependent glucopyranoside uptake was measured by subtracting the values obtained with sodium-free buffer from those obtained using sodium buffer (average of triplicate determinations).

human SGLT2 = biological target: T2, human SGLT2 (Homo sapiens, UniProt P31639); assay: Methyl-α-D-[U-14C]glucopyranoside uptake assay, cells stably expressing human SGLT2; assay type: cell-based; details: HEK293.ETN cells expressing human SGLT2, 1.5 h incubation
T2 construct: A full-length cDNA clone expressing human SGLT2 (GenScript Corporation) was subcloned
T2 sequence (P31639 1-672): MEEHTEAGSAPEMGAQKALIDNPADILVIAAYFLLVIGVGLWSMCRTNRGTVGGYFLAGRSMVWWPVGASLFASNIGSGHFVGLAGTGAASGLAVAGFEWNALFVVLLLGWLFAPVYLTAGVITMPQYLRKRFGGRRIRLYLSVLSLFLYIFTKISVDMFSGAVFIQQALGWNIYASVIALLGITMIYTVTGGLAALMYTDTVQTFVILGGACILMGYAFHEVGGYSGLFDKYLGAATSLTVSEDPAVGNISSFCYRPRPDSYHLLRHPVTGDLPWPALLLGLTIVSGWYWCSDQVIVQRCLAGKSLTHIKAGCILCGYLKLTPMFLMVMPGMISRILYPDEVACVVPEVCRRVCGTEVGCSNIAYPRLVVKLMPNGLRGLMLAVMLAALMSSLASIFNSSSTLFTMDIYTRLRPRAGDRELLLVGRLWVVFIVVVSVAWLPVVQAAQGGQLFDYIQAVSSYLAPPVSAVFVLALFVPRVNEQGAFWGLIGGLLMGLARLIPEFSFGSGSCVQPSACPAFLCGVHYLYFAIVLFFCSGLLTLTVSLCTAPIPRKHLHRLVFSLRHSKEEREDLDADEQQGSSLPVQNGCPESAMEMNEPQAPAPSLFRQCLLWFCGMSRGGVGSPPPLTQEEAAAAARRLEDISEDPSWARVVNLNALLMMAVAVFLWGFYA
Source text: A full-length cDNA clone expressing human SGLT2 (GenScript Corporation) was subcloned into […] and Not I sites of pEAK15 expression vector. Clones harboring the cDNA inserts were identified by restriction analysis.
Plasmid containing human SGLT2 was linearized with Nsi I and purified by agarose gel electrophoresis. Using Lipofectamine 2000 Transfection Reagent (Invitrogen Corporation), DNA was transfected into HEK293.ETN cells and cultured in Dulbecco's Modified Eagle Medium (DMEM) containing 10% fetal bovine serum (FBS) at 37° C. under 5% CO2 for 24 h. Transfectants were selected in the same growth medium supplemented with puromycin (Invitrogen Corporation) for two weeks. Puromycin-resistant cells were recovered and seeded on a fresh 96-well plate (single cell per well) and cultured in the presence of puromycin until cells became confluent. Puromycin-resistant clones were evaluated for SGLT2 activity in the methyl-α-D-[U-^14C]glucopyranoside uptake assay described below.
as §1

[1] = with 25% human serum (symbols in parentheses)
[2] = without human serum (symbols without parentheses)

Row | Compound | IC50 (human SGLT1; [1]) | IC50 (human SGLT2; [1]) | IC50 (human SGLT1; [2]) | IC50 (human SGLT2; [2])
1 | CC#CCOCc1cc(Cl)c(Cc2ccc(CC)cc2)cc1[C@@H]1O[C@H](CO)[C@@H](O)[C@H](O)[C@H]1O [Compound AX, (2S,3R,4R,5S,6R)-2-(2-((but-2-ynyloxy)methyl)-4-chloro-5-(4-ethylbenzyl)phenyl)-6-(hydroxymethyl)tetrahydro-2H-pyran-3,4,5-triol] | > 10000 nM | < 1000 nM |  | 
2 | CCc1ccc(Cc2cc([C@@H]3O[C@H](CO)[C@@H](O)[C@H](O)[C@H]3O)c(OCCOCC(F)(F)F)cc2Cl)cc1 [Compound BS, (2S,3R,4R,5S,6R)-2-(4-chloro-5-(4-ethylbenzyl)-2-(2-(2,2,2-trifluoroethoxy)ethoxy)phenyl)-6-(hydroxymethyl)tetrahydro-2H-pyran-3,4,5-triol] | > 10000 nM | < 1000 nM |  | 
3 | C=CCOCc1cc(Cl)c(Cc2ccc(OCC=C)cc2)cc1[C@@H]1O[C@H](CO)[C@@H](O)[C@H](O)[C@H]1O [Compound BB, (2S,3R,4R,5S,6R)-2-(5-(4-(allyloxy)benzyl)-2-(allyloxymethyl)-4-chlorophenyl)-6-(hydroxymethyl)tetrahydro-2H-pyran-3,4,5-triol] | > 10000 nM | < 1000 nM |  | 
4 | CCc1ccc(Cc2cc([C@@H]3O[C@H](CO)[C@@H](O)[C@H](O)[C@H]3O)c(COCC(C)(F)F)cc2Cl)cc1 [Compound CB, (2S,3R,4R,5S,6R)-2-(4-chloro-2-((2,2-difluoropropoxy)methyl)-5-(4-ethylbenzyl)phenyl)-6-(hydroxymethyl)tetrahydro-2H-pyran-3,4,5-triol] |  |  | > 10000 nM | < 1000 nM
5 | C#CCOCc1cc(Cl)c(Cc2ccc(CC)cc2)cc1[C@@H]1O[C@H](COC(C)=O)[C@@H](O)[C@H](O)[C@H]1O [Compound BD, ((2R,3S,4R,5R,6S)-6-(4-chloro-5-(4-ethylbenzyl)-2-((prop-2-ynyloxy)methyl)phenyl)-3,4,5-trihydroxytetrahydro-2H-pyran-2-yl)methyl acetate] |  |  | > 10000 nM | < 1000 nM
6 | C#CCOCCc1cc(Cl)c(Cc2ccc(CC)cc2)cc1[C@@H]1O[C@H](CO)[C@@H](O)[C@H](O)[C@H]1O [Compound AM, (2S,3R,4R,5S,6R)-2-(4-chloro-5-(4-ethylbenzyl)-2-(2-(prop-2-ynyloxy)ethyl)phenyl)-6-(hydroxymethyl)tetrahydro-2H-pyran-3,4,5-triol] |  |  | > 10000 nM | < 1000 nM

Other lines, results leading:

Row | IC50 (human SGLT1; [1]) | IC50 (human SGLT2; [1]) | IC50 (human SGLT1; [2]) | IC50 (human SGLT2; [2]) | Compound
7 | > 10000 nM | < 1000 nM |  |  | C#CCOCc1cc(Cl)c(Cc2ccc(OCC)cc2)cc1[C@@H]1O[C@H](CO)[C@@H](O)[C@H](O)[C@H]1O [Compound CC, (2S,3R,4R,5S,6R)-2-(4-chloro-5-(4-ethoxybenzyl)-2-((prop-2-ynyloxy)methyl)phenyl)-6-(hydroxymethyl)tetrahydro-2H-pyran-3,4,5-triol]
8 |  |  | > 10000 nM | < 1000 nM | CCc1ccc(Cc2cc([C@@H]3O[C@H](CO)[C@@H](O)[C@H](O)[C@H]3O)c(COCC(O)CO)cc2Cl)cc1 (stereo partly drawn) [Compound L, (2S,3R,4R,5S,6R)-2-(4-chloro-2-((2,3-dihydroxypropoxy)methyl)-5-(4-ethylbenzyl)phenyl)-6-(hydroxymethyl)tetrahydro-2H-pyran-3,4,5-triol]
9 |  |  | > 10000 nM | < 1000 nM | CCc1ccc(Cc2cc([C@@H]3O[C@H](CO)[C@@H](O)[C@H](O)[C@H]3O)c(COCC(C)=O)cc2Cl)cc1 [Compound K, 1-(5-chloro-4-(4-ethylbenzyl)-2-((2S,3R,4R,5S,6R)-3,4,5-trihydroxy-6-(hydroxymethyl)tetrahydro-2H-pyran-2-yl)benzyloxy)propan-2-one]
10 |  |  | 1000 to 10000 nM | < 1000 nM | CCc1ccc(Cc2cc([C@@H]3O[C@H](CO)[C@@H](O)[C@H](O)[C@H]3O)c(COCC(C)F)cc2Cl)cc1 (stereo partly drawn) [Compound T, (2S,3R,4R,5S,6R)-2-(4-chloro-5-(4-ethylbenzyl)-2-((2-fluoropropoxy)methyl)phenyl)-6-(hydroxymethyl)tetrahydro-2H-pyran-3,4,5-triol]
